The source of these data is US10889553B2, “Asymmetric triazole benzamide derivatives and the compositions and methods of treatment regarding the same” (NysnoBio Ireland DAC, priority 2017, dated 2021).

Holding throughout (test): Selectivity screen, radioligand displacement
Common to all, as to type: binding
A general note: Displacement assays read how much labelled ligand stays bound in the presence of the test substance.

Data set [1] deals with KV channel. Particulars: Compound 42 at 10 μM. The source says:
(§1) If the % inhibition is less than 50%, the test compounds is consider to have no effect.

Data set [2] addresses M2 (h) (Homo sapiens, UniProt P08172). The conditions noted are these: read-out: % Inhib M2 (h).
Description: as §1

In data set [3] the target is N neuronal alpha 4beta 2 (h) (Homo sapiens, UniProt P17787+P43681). The conditions noted are these: read-out: % Inhib N neuronal alpha 4beta 2 (h).
Description: as §1

The test system of data set [4] is Ca2+ channel (L, dihydropyridine). The conditions noted are these: Compound 42 at 10 μM.
Description: as §1

Data set [5] addresses MAO-A (Rattus norvegicus, UniProt P21396). The conditions noted are these: read-out: % Inhib MAO-A.
Description: as §1

The target of data set [6] is hERG potassium channel (Homo sapiens, UniProt Q12809). Particulars: read-out: % Inhib Potassium Channel hERG (human).
Description: as §1
(In general: Block of hERG is tested as a sign of cardiac risk.)

For data set [7], the target named is beta 1 (h) (Homo sapiens, UniProt P08588). Particulars: read-out: % Inhib beta 1 (h).
Description: as §1

In data set [8] the test system is NA+ Channel (Site2). The conditions noted are these: Compound 42 at 10 μM.
Description: as §1

The target of data set [9] is M3 (h) (Homo sapiens, UniProt P20309). Particulars: read-out: % Inhib M3 (h).
Description: as §1

The target in data set [10] is 5-HT2A (h) (Homo sapiens, UniProt P28223). Particulars: read-out: % Inhib 5-HT2A (h).
Description: as §1

The target in data set [11] is CB1 (h) (Homo sapiens, UniProt P21554). The conditions noted are these: read-out: % Inhib CB1 (h).
Description: as §1

The target of data set [12] is 5-HT1B (Rattus norvegicus, UniProt P28564). Particulars: read-out: % Inhib 5-HT1B.
Description: as §1

For data set [13], the target named is ETA (h) (Homo sapiens, UniProt P25101). Particulars: read-out: % Inhib ETA (h).
Description: as §1

Data set [14] concerns NMDA. The conditions noted are these: Compound 42 at 10 μM.
Description: as §1

Data set [15] deals with D1 (h) (Homo sapiens, UniProt P21728).
Description: as §1

The target in data set [16] is CCK1 (CCKA) (h) (Homo sapiens, UniProt P32238). The conditions noted are these: read-out: % Inhib CCK1 (CCKA) (h).
Description: as §1

Data set [17] deals with COX2(h) (Homo sapiens, UniProt P35354). The conditions noted are these: read-out: % Inhib COX2(h).
Description: as §1

Data set [18] concerns the target mu (MOP) (h) (Homo sapiens, UniProt P35372). Particulars: read-out: % Inhib mu (MOP) (h).
Description: as §1

Data set [19] addresses 5-HT3 (h) (Homo sapiens, UniProt P46098). Particulars: read-out: % Inhib 5-HT3 (h).
Description: as §1

For data set [20], the target named is PDE3A (h) (Homo sapiens, UniProt Q14432). The conditions noted are these: read-out: % Inhib PDE3A (h).
Description: as §1

Data set [21] deals with A2A(h) (Homo sapiens, UniProt P29274). The conditions noted are these: read-out: % Inhib A2A(h).
Description: as §1

Data set [22] concerns the target M1 (h) (Homo sapiens, UniProt P11229).
Description: as §1

For data set [23], the target named is V1a (h) (Homo sapiens, UniProt P37288). The conditions noted are these: read-out: % Inhib V1a (h).
Description: as §1

Data set [24] concerns the target D2S (h) (Homo sapiens, UniProt P14416). The conditions noted are these: read-out: % Inhib D2S (h).
Description: as §1

SMILES strings stand for the structures.

Chain of A2A(h) (P29274 whole entry): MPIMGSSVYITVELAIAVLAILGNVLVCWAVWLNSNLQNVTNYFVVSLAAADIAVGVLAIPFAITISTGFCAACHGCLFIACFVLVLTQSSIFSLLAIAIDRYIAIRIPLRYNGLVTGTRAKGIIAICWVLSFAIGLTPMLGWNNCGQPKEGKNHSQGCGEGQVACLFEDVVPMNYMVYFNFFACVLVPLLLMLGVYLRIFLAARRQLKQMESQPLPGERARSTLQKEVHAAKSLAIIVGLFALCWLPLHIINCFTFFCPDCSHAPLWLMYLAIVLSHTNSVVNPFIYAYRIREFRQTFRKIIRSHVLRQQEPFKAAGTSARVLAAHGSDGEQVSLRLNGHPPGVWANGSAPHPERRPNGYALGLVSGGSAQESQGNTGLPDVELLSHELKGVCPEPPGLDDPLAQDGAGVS
Chain of ETA (h) (P25101 21-427): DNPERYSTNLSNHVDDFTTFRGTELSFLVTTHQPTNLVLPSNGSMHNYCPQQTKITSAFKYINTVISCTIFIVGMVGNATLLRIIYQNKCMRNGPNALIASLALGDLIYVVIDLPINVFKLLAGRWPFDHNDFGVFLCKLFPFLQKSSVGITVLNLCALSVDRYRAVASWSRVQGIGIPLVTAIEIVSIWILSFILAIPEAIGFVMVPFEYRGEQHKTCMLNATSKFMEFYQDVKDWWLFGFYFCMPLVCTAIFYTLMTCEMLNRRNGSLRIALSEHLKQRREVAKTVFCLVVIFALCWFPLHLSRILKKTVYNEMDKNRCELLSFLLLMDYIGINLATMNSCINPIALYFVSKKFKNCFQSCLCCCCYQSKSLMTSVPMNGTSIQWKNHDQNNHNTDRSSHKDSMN
Chain of D2S (h) (P14416 1-414 isoform P14416-2): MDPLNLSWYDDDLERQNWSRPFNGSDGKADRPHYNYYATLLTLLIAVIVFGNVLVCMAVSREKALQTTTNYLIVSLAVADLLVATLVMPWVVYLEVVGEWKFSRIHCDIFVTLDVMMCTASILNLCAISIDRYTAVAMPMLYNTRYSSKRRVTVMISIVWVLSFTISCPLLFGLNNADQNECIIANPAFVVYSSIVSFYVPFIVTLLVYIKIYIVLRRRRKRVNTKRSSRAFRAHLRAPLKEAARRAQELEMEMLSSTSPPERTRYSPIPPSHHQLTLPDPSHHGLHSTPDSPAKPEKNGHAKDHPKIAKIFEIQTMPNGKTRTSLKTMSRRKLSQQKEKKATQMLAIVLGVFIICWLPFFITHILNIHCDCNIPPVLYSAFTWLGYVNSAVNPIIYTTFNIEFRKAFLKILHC
Chain of MAO-A (P21396 whole entry): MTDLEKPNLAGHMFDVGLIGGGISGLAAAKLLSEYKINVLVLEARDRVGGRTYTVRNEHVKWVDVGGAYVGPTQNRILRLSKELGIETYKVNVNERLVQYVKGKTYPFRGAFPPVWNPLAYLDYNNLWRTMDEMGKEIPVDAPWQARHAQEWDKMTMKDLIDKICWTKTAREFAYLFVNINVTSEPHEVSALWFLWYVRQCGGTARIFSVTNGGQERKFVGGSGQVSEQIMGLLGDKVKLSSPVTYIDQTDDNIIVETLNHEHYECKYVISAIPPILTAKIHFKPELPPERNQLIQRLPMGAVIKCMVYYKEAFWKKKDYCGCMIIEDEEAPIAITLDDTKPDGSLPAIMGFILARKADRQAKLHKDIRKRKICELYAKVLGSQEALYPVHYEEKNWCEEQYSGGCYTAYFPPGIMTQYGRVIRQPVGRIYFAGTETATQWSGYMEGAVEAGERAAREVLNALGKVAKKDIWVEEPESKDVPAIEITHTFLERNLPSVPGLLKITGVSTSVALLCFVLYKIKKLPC
Chain of mu (MOP) (h) (P35372 whole entry): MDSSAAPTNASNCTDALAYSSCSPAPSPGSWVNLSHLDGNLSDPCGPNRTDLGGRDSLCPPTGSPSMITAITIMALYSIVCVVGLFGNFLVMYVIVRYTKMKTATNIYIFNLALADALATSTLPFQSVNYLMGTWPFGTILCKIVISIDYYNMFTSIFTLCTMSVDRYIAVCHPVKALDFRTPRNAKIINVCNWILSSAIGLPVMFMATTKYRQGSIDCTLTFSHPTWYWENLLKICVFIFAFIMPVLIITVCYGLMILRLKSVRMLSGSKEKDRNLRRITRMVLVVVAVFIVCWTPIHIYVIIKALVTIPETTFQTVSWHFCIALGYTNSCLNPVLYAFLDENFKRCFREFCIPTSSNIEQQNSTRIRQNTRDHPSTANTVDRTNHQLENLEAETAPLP
Chain of COX2(h) (P35354 18-604): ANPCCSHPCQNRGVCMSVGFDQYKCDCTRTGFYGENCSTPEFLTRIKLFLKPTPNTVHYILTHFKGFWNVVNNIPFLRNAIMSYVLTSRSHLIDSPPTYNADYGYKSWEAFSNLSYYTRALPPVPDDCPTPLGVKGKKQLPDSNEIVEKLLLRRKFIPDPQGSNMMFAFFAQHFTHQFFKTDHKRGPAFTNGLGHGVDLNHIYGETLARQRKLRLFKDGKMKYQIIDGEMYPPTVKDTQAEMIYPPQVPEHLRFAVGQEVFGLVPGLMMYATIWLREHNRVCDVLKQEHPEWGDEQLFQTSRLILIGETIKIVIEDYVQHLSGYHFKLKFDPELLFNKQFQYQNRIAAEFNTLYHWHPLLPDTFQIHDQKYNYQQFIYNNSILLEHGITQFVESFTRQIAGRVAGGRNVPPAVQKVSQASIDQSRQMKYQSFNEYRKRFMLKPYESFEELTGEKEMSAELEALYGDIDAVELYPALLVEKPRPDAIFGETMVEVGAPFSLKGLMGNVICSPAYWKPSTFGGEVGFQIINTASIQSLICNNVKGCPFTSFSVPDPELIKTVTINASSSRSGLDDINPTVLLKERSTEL
Chain of 5-HT1B (P28564 whole entry): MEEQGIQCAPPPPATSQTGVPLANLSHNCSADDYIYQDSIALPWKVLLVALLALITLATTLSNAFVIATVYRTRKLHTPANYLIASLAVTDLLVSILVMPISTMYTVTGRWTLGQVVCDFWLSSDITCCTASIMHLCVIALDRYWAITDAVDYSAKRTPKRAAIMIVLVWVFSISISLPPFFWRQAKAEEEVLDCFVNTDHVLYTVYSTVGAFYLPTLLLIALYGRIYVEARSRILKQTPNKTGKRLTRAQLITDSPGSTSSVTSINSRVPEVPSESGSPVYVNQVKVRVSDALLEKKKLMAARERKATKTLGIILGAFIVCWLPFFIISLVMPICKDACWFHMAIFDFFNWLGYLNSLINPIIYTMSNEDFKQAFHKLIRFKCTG
Chain of CCK1 (CCKA) (h) (P32238 whole entry): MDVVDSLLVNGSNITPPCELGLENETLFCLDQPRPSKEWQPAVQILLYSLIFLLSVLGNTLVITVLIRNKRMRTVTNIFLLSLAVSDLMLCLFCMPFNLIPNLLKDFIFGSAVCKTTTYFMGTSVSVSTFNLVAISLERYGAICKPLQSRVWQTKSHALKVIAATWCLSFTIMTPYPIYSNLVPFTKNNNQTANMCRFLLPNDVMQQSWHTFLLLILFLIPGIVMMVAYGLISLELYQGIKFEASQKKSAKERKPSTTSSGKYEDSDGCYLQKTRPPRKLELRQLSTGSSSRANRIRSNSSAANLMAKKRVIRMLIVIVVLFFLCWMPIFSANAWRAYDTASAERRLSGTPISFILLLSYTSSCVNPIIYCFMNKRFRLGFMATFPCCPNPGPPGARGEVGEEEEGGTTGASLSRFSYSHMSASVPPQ
Chain of M3 (h) (P20309 whole entry): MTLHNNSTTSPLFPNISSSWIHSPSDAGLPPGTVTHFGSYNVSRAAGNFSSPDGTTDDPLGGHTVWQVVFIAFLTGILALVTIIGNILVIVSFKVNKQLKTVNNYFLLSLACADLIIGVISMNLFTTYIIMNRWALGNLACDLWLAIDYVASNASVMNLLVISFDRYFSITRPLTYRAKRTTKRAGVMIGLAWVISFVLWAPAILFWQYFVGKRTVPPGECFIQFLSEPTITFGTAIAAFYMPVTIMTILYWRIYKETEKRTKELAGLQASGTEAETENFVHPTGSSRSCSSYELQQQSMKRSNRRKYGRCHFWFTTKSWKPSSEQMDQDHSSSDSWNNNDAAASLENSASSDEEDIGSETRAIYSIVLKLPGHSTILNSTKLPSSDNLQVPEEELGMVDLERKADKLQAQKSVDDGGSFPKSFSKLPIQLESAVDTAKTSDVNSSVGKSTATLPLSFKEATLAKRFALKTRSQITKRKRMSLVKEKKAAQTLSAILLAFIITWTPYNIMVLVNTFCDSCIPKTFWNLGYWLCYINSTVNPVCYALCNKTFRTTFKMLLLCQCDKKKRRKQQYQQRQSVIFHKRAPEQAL
Chain of D1 (h) (P21728 whole entry): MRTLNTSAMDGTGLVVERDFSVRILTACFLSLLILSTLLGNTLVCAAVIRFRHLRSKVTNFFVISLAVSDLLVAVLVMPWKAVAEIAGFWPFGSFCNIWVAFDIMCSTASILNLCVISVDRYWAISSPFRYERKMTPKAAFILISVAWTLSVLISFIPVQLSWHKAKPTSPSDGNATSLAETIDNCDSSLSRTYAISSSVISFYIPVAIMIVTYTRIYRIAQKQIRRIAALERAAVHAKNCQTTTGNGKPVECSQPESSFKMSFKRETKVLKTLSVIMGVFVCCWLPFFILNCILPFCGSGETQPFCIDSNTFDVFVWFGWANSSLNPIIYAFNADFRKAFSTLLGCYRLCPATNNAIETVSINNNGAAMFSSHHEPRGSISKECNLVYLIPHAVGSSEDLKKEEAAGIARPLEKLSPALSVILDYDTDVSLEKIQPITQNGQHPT

`Cc1ccccc1C(=O)Nc1nc(NC(=O)c2ccccc2C)n(-c2ccc(OC(F)(F)F)cc2)n1` [Compound 42, N,N′-(1-(4-(trifluoromethoxy)phenyl)-1H-1,2,4-triazole-3,5-diyl)bis(2-methylbenzamide)]: the “% Inhib KV channel” value in data set [1] turned out to be 1%. The inhibition at 10 µM in data set [2] was less than 1%; in data set [3], less than 1%; in data set [5], 4%; in data set [6], 1%; in data set [7], less than 1%; in data set [9], less than 1%. Further, the inhibition at 10 µM was 4% in [10]; less than 1% in data set [11]; 1% in [12]; less than 1% in data set [13]; less than 1% in data set [15]; less than 1% in data set [16]. Also, the inhibition at 10 µM in [17] is 1%; in data set [18], 6%; in data set [19] it was less than 1%; in data set [20], 13%; in [21], 7%; in [22], 4%. For the same compound, the results for the inhibition at 10 µM in data set [23] and in data set [24] were 5% and less than 1%, respectively. Besides, the “% Inhib Ca2+ channel (L, dihydropyridine)” value in data set [4] is on record as 45%. In addition, the “% Inhib NA+ Channel (Site2)” value in data set [8] was 43%. Besides, in data set [14], the “% Inhib NMDA” value amounted to 8%.
